The source of these data is publication PMC8164609 (Environmental Science and Pollution Research International, 2021).

Values joined by “and” are separate entries in the source; they are usually repeats but may differ in a detail not shown here. Equal entries are not always repeated. Where two headings read alike, the source gives them in different places.

The EC50 is the concentration needed to bring the measured effect to its halfway point.

One data set concerns S. cerevisiae BMA64/luc. The settings on record: values higher than 2 are considered toxic. Here is the method: (§1) Yeast bioluminescent assay was performed as previously described (Omoruyi and Pohjanvirta [2018]). Two recombinant yeasts, Saccharomyces cerevisiae BMAEREluc/ERα and Saccharomyces cerevisiae BMA64/luc, were kindly provided by Dr. Johanna Rajasärkkä, Department of Food and Environmental Sciences, Faculty of Agriculture and Forestry, University of Helsinki. In the BMAEREluc/ERα, human ERα is expressed. After estrogen-like chemicals bind to ERα, the dimerized receptor binds to a specific DNA sequence called estrogen response element (ERE), in the promotor region of the luc reporter gene, inducing its expression. In BMA64/luc, the luciferase is expressed constitutively, and this strain can be used for the evaluation of cytotoxicity of test compounds.
Both strains were revived from glycerol stock solution on agar and broth forms of synthetic complete medium supplemented with the required amino acids. After the absence of contamination was confirmed by observing single colonies’ morphology on agar plate, approximately 10 μL of cultured yeasts in broth was transferred to 4 mL of synthetic defined (SD) medium supplemented with the required amino acids. The culture was incubated at 30°C on a shaker incubator (200 rpm). After 24-h incubation, the culture was diluted with SD broth to reach the optimal density (OD600) of 0.4 CFU/mL. Subsequently, the culture was incubated in the same incubation condition until the OD600 reached 0.6–0.7 CFU/mL.
Next, 90 μL of cultured yeasts containing 1:20 luciferin solution (0.042 g luciferin dissolved in 9.75 mL of 0.2 M trisodium citrate, and 5.525 mL of 0.2 M citrate, pH 5) was pipetted into every well of a white 96-well flat-bottom plate, and 10 μL of test compounds in a defined concentration range (diluted in 5% EtOH) were added. The plate was incubated at 30°C for approximately 2.5 h, and was then shaken briefly. The luminescence measurement was performed with Luminoskan Ascent microplate luminometer (Thermo Labsystems) using the recommended settings as follows: 1000 ms integration time, single measurement mode, shaking at 60 rpm for 5 s prior to measurement.
Each concentration of test compounds and controls in the assay was tested in triplicate, and the experiment was performed twice.
* The Correction Factor is the luminescence of the strain BMA64/luc with blank solvent divided by the luminescence of the control strain with the sample. Values higher than 2 are considered toxic (Leskinen et al. 2005).
* The Correction Factor is the luminescence of the strain BMA64/luc with blank solvent divided by the luminescence of the control strain with the sample. Values higher than 2 are considered toxic (Leskinen et al. 2005). […] Each experiment was performed in triplicate.

Data set [1] relates to MCF-7 cells. Briefly: MCF-7 cell proliferation assay (MTT reduction). Format: cell-based, human. The settings on record: for EC50: Homo sapiens. Here is the method:
MCF-7 cell line which is sensitive to estrogen (ERα^+) was kindly provided by Dr. Sari Tojkander (Department of Veterinary Biosciences, Faculty of Veterinary Medicine, University of Helsinki). Cells were usually grown in T25 or T75 flasks containing DMEM with or without phenol red and supplemented with 7–10% FBS and 4 mM L-glutamine at 37°C in 5% CO2/95% humidified atmosphere. In order to eliminate the disturbing effect of hormones usually present in FBS, cell culture medium supplemented with commercially available charcoal-stripped FBS and 4 mM L-glutamine (SF medium) was used for experiments.
The effect of EEDCs on the proliferation of MCF-7 cells was assessed as previously described by measuring the capacity of the cells in each well to reduce MTT reagent (Van Meeuwen et al. [2007]). Approximately 5000 cells/200 μL of SF medium containing DMEM without phenol red, 5% charcoal-stripped FBS, and 4 mM L-glutamine were seeded per well in a 96-well cell culture plate. On day 2, cells were treated with the SF medium containing test compounds or vehicle. The final concentration of the solvents DMSO and EtOH was lower than 0.1%. On day 5, the SF medium containing test compounds or vehicle were refreshed. On day 8, cells were washed with PBS twice and then incubated with the SF medium containing 1 mg/mL MTT reagent for 1 h. The ability of MCF-7 cells to reduce MTT was measured at the reference wavelength of 595 nm using a microplate reader (Multiskan Ascent, Thermo Fisher Scientific). All the exposures were in triplicate.
The dose-response curves of test samples were plotted against logarithmic-transformed concentrations.
In general terms: Formazan colour is commonly taken as a measure of viable cells.

For data set [2], the system named is MCF-7 cells. The data set is described as follows: In vitro micronucleus assay for cytokinesis block. The format is cell-based, human. The settings on record: 24 h; for Micronuclei per 1000 binucleated cells, Replicates: single replicate values. Here is the method:
The genotoxicity of EEDCs to MCF-7 cells was assessed by the in vitro micronucleus assay for cytokinesis block. MCF-7 cells were seeded at a density of 5×10^4/well in a 12-well plate in SF medium containing DMEM, 7% charcoal-stripped FBS and 4 mM L-glutamine. These cells were treated with test compounds or the positive control for 24 h. Then, cells were washed twice with PBS, treated with 2 μg/mL cytochalasin B, and incubated for 1.5–2 normal cell cycle lengths (~24 h for MCF-7 cells). Finally, cells were washed with PBS and fixed with 4% paraformaldehyde for 10–15 min (in PBS, pH 6.9). Before staining cells with 5% Giemsa stain for 20 min, plates were washed again with PBS and dried. The frequency of micronuclei per 1000 binucleated cells was counted for each well, and the ratio of micronucleus frequency in treated vs. control cells was defined as fold induction. Cells in mitosis were omitted.

The subject of data set [3] is MCF-7 cells. The data set is described as follows: LDH cytotoxicity test. The settings on record: 24 h, up to 10^−4 M. Here is the method:
Cytotoxicity was assessed by lactate dehydrogenase (LDH) release. For LDH measurement, Pierce LDH Cytotoxicity Assay Kit (Thermo Scientific, Rockford, USA) was used. MCF-7 cells were seeded at 2.8×10^5 in a transparent 96-well plate, and corner cells of the plate were filled with PBS to prevent the edge effect. SF medium containing DMEM without phenol red, 1% charcoal-stripped FBS, and 4 mM L-glutamine were used for this assay. Plates were incubated for 24 h, and then the cells were treated with test compounds at concentrations ranging from 10^−14 to 10^−4 M or vehicle for another 24 h. On day 3, culture supernatant was collected in a separate 96-well plate, and the assay was continued according to the manufacturer’s instructions. Final absorbance was measured with the microplate reader at 490 and 680 nm. […] Vehicle control was 0.1% EtOH or DMSO. All the exposures were in triplicate, and the experiment was carried out twice.

A further data set has as its target T1, human ERα (Homo sapiens, UniProt P03372).
T1 construct: expressed in transfected cells; host or cells: Saccharomyces cerevisiae BMAEREluc/ERα (recombinant yeast, gift of Dr. Johanna Rajasärkkä, University of Helsinki)
T1 sequence (P03372 1-595): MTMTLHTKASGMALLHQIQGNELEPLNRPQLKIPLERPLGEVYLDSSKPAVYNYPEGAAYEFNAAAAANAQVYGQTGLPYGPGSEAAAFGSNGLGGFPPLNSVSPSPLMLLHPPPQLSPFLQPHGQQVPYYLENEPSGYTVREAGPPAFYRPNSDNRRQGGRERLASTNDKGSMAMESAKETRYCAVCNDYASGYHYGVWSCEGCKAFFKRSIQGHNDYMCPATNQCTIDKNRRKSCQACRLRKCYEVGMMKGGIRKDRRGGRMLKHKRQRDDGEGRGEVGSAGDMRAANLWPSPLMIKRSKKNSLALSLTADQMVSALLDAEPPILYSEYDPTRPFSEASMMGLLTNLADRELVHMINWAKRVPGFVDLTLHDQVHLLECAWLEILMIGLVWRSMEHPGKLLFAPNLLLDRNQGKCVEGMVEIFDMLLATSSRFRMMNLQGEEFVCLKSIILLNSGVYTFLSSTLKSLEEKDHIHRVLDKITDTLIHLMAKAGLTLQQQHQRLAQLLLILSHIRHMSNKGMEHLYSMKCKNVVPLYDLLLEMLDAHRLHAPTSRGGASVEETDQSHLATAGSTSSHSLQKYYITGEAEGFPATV
Briefly: Yeast bioluminescent assay, S. cerevisiae BMAEREluc/ERα (ERE-luc reporter). The format is cell-based. The settings on record: negative control, Fig. 1a. Here is the method: as §1, with “compounds. […]” for “compounds.”
Next, 90 μL of cultured yeasts containing 1:20 luciferin solution (0.042 g luciferin dissolved in 9.75 mL of 0.2 M trisodium citrate, and 5.525 mL of 0.2 M citrate, pH 5) was pipetted into every well of a white 96-well flat-bottom plate, and 10 μL of test compounds in a defined concentration range (diluted in 5% EtOH) were added. […] The luminescence measurement was performed with Luminoskan Ascent microplate luminometer (Thermo Labsystems) using the recommended settings as follows: 1000 ms integration time, single measurement mode, shaking at 60 rpm for 5 s prior to measurement. […]

In the case of `C[C@]12CC[C@@H]3c4ccc(O)cc4CC[C@H]3[C@@H]1CC[C@@H]2O` [17β-estradiol], the “Correction Factor” value with S. cerevisiae BMA64/luc (5% DMSO, 10^−4 M) was determined as 3.23±0.53; in the data set with S. cerevisiae BMA64/luc (5% DMSO, 10^−6 M), 3.42±0.81; in the data set on S. cerevisiae BMA64/luc (5% DMSO, 10^−8 M), 2.98±0.42; with S. cerevisiae BMA64/luc (5% DMSO, 10^−10 M), 3.11±0.47; with S. cerevisiae BMA64/luc (5% DMSO, 10^−12 M), 2.60±0.69; in the data set on S. cerevisiae BMA64/luc (5% DMSO, 10^−14 M), 2.59±0.23. Also, the “Correction Factor” value with S. cerevisiae BMA64/luc (5% ethanol, 10^−4 M) was determined as 1.12±0.12; with S. cerevisiae BMA64/luc (5% ethanol, 10^−6 M) it was 1.08±0.05; with S. cerevisiae BMA64/luc (5% ethanol, 10^−8 M) it was 1.11±0.06. Moreover, the half-maximal effective concentration (EC50) in the data set with MCF-7 cells [1] (MCF7, MCF-7 cells, hormone-depleted medium, MTT, read-out: EC50 (proliferative effect)) came out at 0.00021 µM. Besides, the “Micronuclei per 1000 binucleated cells, Average” value in the data set with MCF-7 cells [2] (10^−7 M) is listed as 13.33 per 1000 binucleated cells; with MCF-7 cells [2] (10^−8 M) it was 13 per 1000 binucleated cells. In addition, the “Micronuclei per 1000 binucleated cells, Replicates” value with MCF-7 cells [2] (10^−7 M) was 10 per 1000 binucleated cells and 13 per 1000 binucleated cells and 17 per 1000 binucleated cells; in the data set with MCF-7 cells [2] (10^−8 M) it was 12 per 1000 binucleated cells and 14 per 1000 binucleated cells and 13 per 1000 binucleated cells. Further, in the data set on MCF-7 cells [3], the “maximum level of cytotoxicity (LDH release)” value is “less than 2.5%”.
Take `O=c1c(-c2ccc(O)cc2)coc2cc(O)cc(O)c12` [genistein]: the “Correction Factor” value in the data set on S. cerevisiae BMA64/luc (5% DMSO, 10^−4 M) came out at 3.19±0.42; in the data set with S. cerevisiae BMA64/luc (5% DMSO, 10^−6 M), 2.59±0.95; with S. cerevisiae BMA64/luc (5% DMSO, 10^−8 M), 3.59±1.22; with S. cerevisiae BMA64/luc (5% DMSO, 10^−10 M), 2.20±0.05; in the data set with S. cerevisiae BMA64/luc (5% DMSO, 10^−12 M), 2.59±0.45; with S. cerevisiae BMA64/luc (5% DMSO, 10^−14 M), 3.88±1.32. For the same compound, the “Correction Factor” value with S. cerevisiae BMA64/luc (5% ethanol, 10^−4 M) is 1.59±0.17; in the data set with S. cerevisiae BMA64/luc (5% ethanol, 10^−6 M), 1.27±0.42; in the data set with S. cerevisiae BMA64/luc (5% ethanol, 10^−8 M), 1.18±0.24; in the data set on S. cerevisiae BMA64/luc (5% ethanol, 10^−10 M), 1.07±0.04; in the data set on S. cerevisiae BMA64/luc (5% ethanol, 10^−12 M), 1.30±0.22; in the data set with S. cerevisiae BMA64/luc (5% ethanol, 10^−14 M), 1.58±0.23. In the data set with MCF-7 cells [1] (MCF7, read-out: EC50 (proliferative effect)), the EC50 turned out to be 0.831 µM. For the same compound, the “efficacy (maximum induction of cell growth) compared with 17β-estradiol” value with MCF-7 cells [1] (MCF-7 cells, MTT) is “about half”. Besides, the “maximum level of cytotoxicity (LDH release)” value with MCF-7 cells [3] was “less than 2.5%”.
For `CC(=O)[C@H]1CC[C@H]2[C@@H]3CCC4=CC(=O)CC[C@]4(C)[C@H]3CC[C@]12C` [progesterone], at human ERα, the “luciferase activity (estrogenic response)” value was “did not produce any detectable luciferase activity”.
In the case of `CC/C(=C(\c1ccccc1)c1ccc(OCCN(C)C)cc1)c1ccccc1` [tamoxifen], the “Correction Factor” value with S. cerevisiae BMA64/luc (5% DMSO, 10^−4 M) was 2.87±0.04; in the data set with S. cerevisiae BMA64/luc (5% DMSO, 10^−6 M), 2.30±0.14; in the data set on S. cerevisiae BMA64/luc (5% DMSO, 10^−8 M) it was 2.54±0.17; with S. cerevisiae BMA64/luc (5% DMSO, 10^−10 M) it was 2.47±0.30; in the data set with S. cerevisiae BMA64/luc (5% DMSO, 10^−12 M) it was 2.51±0.21; with S. cerevisiae BMA64/luc (5% DMSO, 10^−14 M) it was 2.40±0.09. Further, the “Correction Factor” value worked out at 1.35±0.25 in the data set on S. cerevisiae BMA64/luc (5% ethanol, 10^−4 M); 1.21±0.32 with S. cerevisiae BMA64/luc (5% ethanol, 10^−6 M); 1.50±0.27 in the data set on S. cerevisiae BMA64/luc (5% ethanol, 10^−8 M); 1.28±0.25 with S. cerevisiae BMA64/luc (5% ethanol, 10^−10 M); 1.23±0.16 in the data set with S. cerevisiae BMA64/luc (5% ethanol, 10^−12 M); 1.39±0.31 in the data set on S. cerevisiae BMA64/luc (5% ethanol, 10^−14 M). The dose-response of proliferation entry in the data set with MCF-7 cells [1] (in the presence of 10^−12 M of 17β-estradiol, Fig. 2b) is “inverse dose-response curve”.
